Where two headings read alike, the source gives them in different places.
Legend:
human recombinant HDAC1 = target: T1, human recombinant HDAC1 (Homo sapiens, UniProt Q13547); experiment: HDAC1 enzyme activity inhibition (HDAC Fluorimetric Drug Discovery Kit); assay type: biochemical; settings: read-out: HDAC1
T1 construct: purchased Enzo Life Science, Inc. BML-SE456
In short: (§1)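 Compounds in 5-fold dilution series were incubated with […] enzyme and 10 μM substrate at 30° C for 60 minutes. Fluor de Lys Developer II was then added for 30 minutes to stop the reaction and develop the fluorescent signal.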

human recombinant HDAC6 = target: T2, human recombinant HDAC6 (Homo sapiens, UniProt Q9UBN7); experiment: HDAC6 enzyme activity inhibition (HDAC Fluorimetric Drug Discovery Kit); assay type: biochemical
T2 construct: purchased Calbiochem Inc. 382180
T2 sequence (Q9UBN7 1-1215): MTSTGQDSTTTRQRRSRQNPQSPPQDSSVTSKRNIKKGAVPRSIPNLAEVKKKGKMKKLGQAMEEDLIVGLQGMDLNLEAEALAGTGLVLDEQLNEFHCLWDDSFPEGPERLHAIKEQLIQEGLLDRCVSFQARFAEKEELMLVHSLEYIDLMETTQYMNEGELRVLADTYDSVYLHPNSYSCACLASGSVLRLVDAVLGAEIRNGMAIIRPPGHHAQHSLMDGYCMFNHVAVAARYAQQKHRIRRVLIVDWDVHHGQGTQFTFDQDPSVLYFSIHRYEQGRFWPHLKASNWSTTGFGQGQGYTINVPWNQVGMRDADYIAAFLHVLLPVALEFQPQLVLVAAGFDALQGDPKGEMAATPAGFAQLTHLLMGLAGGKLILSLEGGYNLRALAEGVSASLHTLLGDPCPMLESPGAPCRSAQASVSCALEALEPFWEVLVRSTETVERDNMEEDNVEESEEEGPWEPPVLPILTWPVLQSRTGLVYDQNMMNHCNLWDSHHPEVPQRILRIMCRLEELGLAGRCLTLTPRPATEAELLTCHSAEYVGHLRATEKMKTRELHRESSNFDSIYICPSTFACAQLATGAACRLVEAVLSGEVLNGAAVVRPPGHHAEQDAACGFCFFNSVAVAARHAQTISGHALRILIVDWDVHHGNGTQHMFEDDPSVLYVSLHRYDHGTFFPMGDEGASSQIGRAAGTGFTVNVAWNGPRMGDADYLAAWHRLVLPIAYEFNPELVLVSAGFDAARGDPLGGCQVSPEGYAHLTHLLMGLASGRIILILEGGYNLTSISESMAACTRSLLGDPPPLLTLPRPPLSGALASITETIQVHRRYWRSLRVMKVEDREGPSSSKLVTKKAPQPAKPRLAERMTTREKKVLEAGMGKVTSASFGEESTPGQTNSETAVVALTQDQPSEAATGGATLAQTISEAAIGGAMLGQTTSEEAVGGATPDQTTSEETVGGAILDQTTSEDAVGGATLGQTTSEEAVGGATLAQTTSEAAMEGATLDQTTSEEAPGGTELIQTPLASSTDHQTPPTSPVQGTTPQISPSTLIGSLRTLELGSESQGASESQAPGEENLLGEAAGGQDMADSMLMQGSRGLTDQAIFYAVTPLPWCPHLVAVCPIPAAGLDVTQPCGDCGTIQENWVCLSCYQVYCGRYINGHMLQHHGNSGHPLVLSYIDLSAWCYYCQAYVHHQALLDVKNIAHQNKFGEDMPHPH
In short: as §1

[1] = tested on: hippocampal neurons from a Sprague-Dawley (SD) rat fetus; experiment: Effect of HDAC6-specific inhibitor on axonal transport of mitochondria in amyloid-beta treated neurons; assay type: cell-based; settings: transport velocity of mitochondria in neuronal axon after normalization; vehicle = 100%, amyloid beta treatment group = 0%; compound treatment for three hours
In short: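 Rat E17-18 hippocampal neurons exposed to amyloid-beta fragments […]; after 24 h (day 8 in vitro) compound added for 3 h, mitochondria stained with MitoTracker Red CMXRos. Confocal imaging every 1 s for 1 min gave per-mitochondrion velocity, normalized vehicle = 100%, amyloid-beta = 0%.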

[2] = human recombinant HDAC1, IC50 calculated with GraphPad Prism
[3] = human recombinant HDAC6, IC50 calculated with GraphPad Prism
[4] = human recombinant HDAC1, Fluor de Lys substrate, 30° C. 60 minutes
[5] = human recombinant HDAC6, same protocol as HDAC1

T1 sequence (Q13547 whole entry): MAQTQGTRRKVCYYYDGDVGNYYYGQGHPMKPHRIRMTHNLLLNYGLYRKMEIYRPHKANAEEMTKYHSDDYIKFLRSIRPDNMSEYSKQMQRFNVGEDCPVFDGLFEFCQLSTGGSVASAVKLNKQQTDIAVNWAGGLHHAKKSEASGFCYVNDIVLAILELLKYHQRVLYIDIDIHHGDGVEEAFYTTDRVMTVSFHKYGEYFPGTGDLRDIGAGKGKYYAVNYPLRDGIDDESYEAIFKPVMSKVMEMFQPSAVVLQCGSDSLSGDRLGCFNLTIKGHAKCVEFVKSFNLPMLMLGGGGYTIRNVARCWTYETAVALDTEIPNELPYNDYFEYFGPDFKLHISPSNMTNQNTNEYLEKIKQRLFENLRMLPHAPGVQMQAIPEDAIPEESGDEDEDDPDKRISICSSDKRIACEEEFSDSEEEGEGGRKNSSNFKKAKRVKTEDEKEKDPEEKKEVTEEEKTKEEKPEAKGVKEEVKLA

Compound	IC50 (human recombinant HDAC1; [2])	HDAC6 selectivity (fold) (human recombinant HDAC6; HDAC1 IC50 / HDAC6 IC50)	IC50 (human recombinant HDAC6; [3])	IC50 (human recombinant HDAC1; [4])	HDAC6 selectivity (fold) (human recombinant HDAC6; HDAC6 over HDAC1)	IC50 (human recombinant HDAC6; [5])	Velocity distribution (%) [1]
CC(C)N1CCC(Nc2cccc(-c3cn(Cc4ccc(-c5nnc(C(F)F)o5)cc4F)nn3)c2F)CC1 [Compound 4432, N-(3-(1-(4-(5-(difluoromethyl)-1,3,4-oxadiazol-2-yl)-2-fluorobenzyl)-1H-1,2,3-triazol-4-yl)-2-fluorophenyl)-1-isopropylpiperidin-4-amine]	> 50000 nM	2427 fold	20.6 nM				*** (***, >100%)
Fc1cc(-c2nnc(C(F)F)o2)ccc1Cn1cc(-c2cn3ccccc3n2)nn1 [Compound 17201, 2-(difluoromethyl)-5-(3-fluoro-4-((4-(imidazo[1,2-a]pyridin-2-yl)-1H-1,2,3-triazol-1-yl)methyl)phenyl)-1,3,4-oxadiazole]				> 50000 nM	639 fold	78.2 nM	* (*, 0%˜50%)
CC(C)N1CCC(c2cccc(-c3cn(Cc4ccc(-c5nnc(C(F)F)o5)cn4)nn3)c2)CC1 [Compound 4012, 2-(difluoromethyl)-5-(6-((4-(3-(1-isopropylpiperidin-4-yl)phenyl)-1H-1,2,3-triazol-1-yl)methyl)pyridin-3-yl)-1,3,4-oxadiazole]	> 50000 nM	2358 fold	21.2 nM				*** (***, >100%)
Fc1cc(-c2nnc(C(F)F)o2)cnc1Cn1cc(-c2ccc(CN3CCCC3)cc2)nn1 [Compound 18058, 2-(difluoromethyl)-5-(5-fluoro-6-((4-(4-(pyrrolidin-1-ylmethyl)phenyl)-1H-1,2,3-triazol-1-yl)methyl)pyridin-3-yl)-1,3,4-oxadiazole]				> 50000 nM	2272 fold	22 nM	*** (***, >100%)
Fc1cc(-c2nnc(C(F)F)o2)ccc1Cn1cc(-c2cccc3[nH]ncc23)nn1 [Compound 4348, 2-(4-((4-(1H-indazol-4-yl)-1H-1,2,3-triazol-1-yl)methyl)-3-fluorophenyl)-5-(difluoromethyl)-1,3,4-oxadiazole]	> 50000 nM	7352 fold	6.8 nM				** (**, 50%˜100%)
Fc1cc(-c2cn(Cc3ccc(-c4nnc(C(F)F)o4)cn3)nn2)ccn1 [Compound 4185, 2-(difluoromethyl)-5-(6-((4-(2-fluoropyridin-4-yl)-1H-1,2,3-triazol-1-yl)methyl)pyridin-3-yl)-1,3,4-oxadiazole]	> 50000 nM	729 fold	68.5 nM				*** (***, >100%)

More lines, main results first:

IC50 (human recombinant HDAC1; [2])	HDAC6 selectivity (fold) (human recombinant HDAC6; HDAC1 IC50 / HDAC6 IC50)	IC50 (human recombinant HDAC6; [3])	IC50 (human recombinant HDAC1; [4])	HDAC6 selectivity (fold) (human recombinant HDAC6; HDAC6 over HDAC1)	IC50 (human recombinant HDAC6; [5])	Compound	Velocity distribution (%) [1]
> 50000 nM	715 fold	69.9 nM				FC(F)c1nnc(-c2ccc(Cn3cc(-c4cccc(N5CCN(C6COC6)CC5)c4)nn3)cc2)o1 [Compound 4370, 2-(difluoromethyl)-5-(4-((4-(3-(4-(oxetan-3-yl)piperazin-1-yl)phenyl)-1H-1,2,3-triazol-1-yl)methyl)phenyl)-1,3,4-oxadiazole]	*** (***, >100%)
> 50000 nM	1992 fold	25.1 nM				Fc1cc(-c2nnc(C(F)F)o2)ccc1Cn1cc(-c2cccc3[nH]ccc23)nn1 [Compound 4079, 2-(4-((4-(1H-indol-4-yl)-1H-1,2,3-triazol-1-yl)methyl)-3-fluorophenyl)-5-(difluoromethyl)-1,3,4-oxadiazole]	** (**, 50%˜100%)
> 50000 nM	863 fold	57.9 nM				Fc1cc(-c2nnc(C(F)F)o2)ccc1Cn1cc(-c2ccccc2)nn1 [Compound 3658, 2-(difluoromethyl)-5-(3-fluoro-4-((4-phenyl-1H-1,2,3-triazol-1-yl)methyl)phenyl)-1,3,4-oxadiazole]	* (*, 0%˜50%)
